Reference: EP4692081A1, “PREPARATION METHOD FOR NAPHTHOISOXAZOLE COMPOUND” (priority 2023, dated 2024)
Counter-ions that a name gives are not always drawn.

What was measured:
Assay type in all cases: cell-based
IRAK4 = target: T1, IRAK4 (Homo sapiens, UniProt Q9NWZ3); experiment: Target protein degradation effect in K562 IRAK4-HiBiT cells (Nano-Glo HiBiT luminescence); settings: incubated 16 to 18 hours
T1 construct: expressed in transfected cells; host or cells: K562 IRAK4-HiBiT cells
T1 sequence (Q9NWZ3 1-460): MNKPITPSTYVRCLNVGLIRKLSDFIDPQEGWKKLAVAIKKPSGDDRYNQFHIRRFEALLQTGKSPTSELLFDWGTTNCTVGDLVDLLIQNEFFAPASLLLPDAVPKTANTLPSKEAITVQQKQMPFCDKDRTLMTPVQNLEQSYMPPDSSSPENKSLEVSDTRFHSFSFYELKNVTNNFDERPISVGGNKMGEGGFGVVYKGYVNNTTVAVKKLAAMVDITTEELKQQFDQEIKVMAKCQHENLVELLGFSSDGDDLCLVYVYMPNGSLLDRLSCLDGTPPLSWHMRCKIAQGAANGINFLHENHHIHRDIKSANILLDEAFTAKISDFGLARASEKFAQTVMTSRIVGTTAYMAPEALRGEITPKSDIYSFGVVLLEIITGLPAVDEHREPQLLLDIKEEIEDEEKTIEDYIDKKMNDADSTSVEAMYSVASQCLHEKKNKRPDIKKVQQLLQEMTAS
Method: Objective: In this experiment, the degradation effect of the test compound on the target protein IRAK4 in K562 IRAK4-HiBiT cells was detected.
Cells: K562 IRAK4-HiBiT cells [formula]
Positive control: 1000 nM; negative control: 0.1% DMSO Table 1. Reagents and consumables
• 1. […] Cell seeding • (1) The cell culture medium was discarded, and the cells were washed once with DPBS, digested with trypsin, and counted to prepare a cell suspension of […]. • (2) 25 µL/well of cell suspension was added to the assay plate containing the test compound using Multidrop Combi at medium speed. • (3) The assay plate containing cells was returned to an incubator with 5% CO2 at 37°C and incubated for 16 to 18 hours.
• (1) 25 µL/well of assay reagent (NanoGlo lysis buffer + substrate + LgBit protein) was added to the assay plate using Multidrop Combi at high speed, and the plate was shaken for 10 minutes. • (2) The plate was centrifuged at 2000 rpm for 1 minute to remove air bubbles. • (3) The plate was read on Envision using US Luminescence detection method.
The degradation rate (DR) of the test compound was calculated using the following formula: DR (%) = (RLU vehicle control - RLU compound) / (RLU vehicle control - RLU positive control) * 100%, where the vehicle control served as the blank control. […]

IKZF1 = target: T2, IKZF1 (Homo sapiens, UniProt Q13422+Q96SW2); experiment: In cell western analysis of IKZF1 protein expression level in MM.1S cells; settings: IKZF 1, MM.1S cells, 24 hours
T2 construct: expression levels of IKZF1 and IKZF3 proteins in MM.1S cells; host or cells: MM.1S cells
T2 sequence (Q13422 whole entry): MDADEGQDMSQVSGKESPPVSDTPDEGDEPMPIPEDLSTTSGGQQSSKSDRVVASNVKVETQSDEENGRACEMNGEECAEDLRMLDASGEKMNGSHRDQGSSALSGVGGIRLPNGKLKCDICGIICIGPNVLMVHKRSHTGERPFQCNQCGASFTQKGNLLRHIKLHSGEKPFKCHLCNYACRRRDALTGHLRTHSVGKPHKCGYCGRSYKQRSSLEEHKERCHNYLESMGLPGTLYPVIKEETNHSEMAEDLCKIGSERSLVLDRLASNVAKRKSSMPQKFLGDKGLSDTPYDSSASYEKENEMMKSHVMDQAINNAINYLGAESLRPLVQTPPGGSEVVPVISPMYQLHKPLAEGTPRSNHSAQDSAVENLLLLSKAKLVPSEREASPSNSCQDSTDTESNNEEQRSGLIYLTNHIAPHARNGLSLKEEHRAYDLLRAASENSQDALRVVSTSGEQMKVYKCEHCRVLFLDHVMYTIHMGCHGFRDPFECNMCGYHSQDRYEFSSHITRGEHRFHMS
T2 sequence (Q96SW2 whole entry): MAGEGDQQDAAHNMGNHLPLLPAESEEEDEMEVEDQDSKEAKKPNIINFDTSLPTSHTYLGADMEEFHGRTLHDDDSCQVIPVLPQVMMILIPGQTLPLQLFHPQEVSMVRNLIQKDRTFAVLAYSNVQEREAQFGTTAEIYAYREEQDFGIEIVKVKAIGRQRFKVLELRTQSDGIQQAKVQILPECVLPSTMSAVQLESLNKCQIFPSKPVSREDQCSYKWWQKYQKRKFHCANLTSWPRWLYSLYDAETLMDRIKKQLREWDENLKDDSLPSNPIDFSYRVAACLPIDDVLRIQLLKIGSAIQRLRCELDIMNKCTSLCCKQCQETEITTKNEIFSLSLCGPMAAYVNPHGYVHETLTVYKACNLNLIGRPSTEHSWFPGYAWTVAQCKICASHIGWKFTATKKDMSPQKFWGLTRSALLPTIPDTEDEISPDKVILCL
T2 sequence (Q16531 whole entry partner): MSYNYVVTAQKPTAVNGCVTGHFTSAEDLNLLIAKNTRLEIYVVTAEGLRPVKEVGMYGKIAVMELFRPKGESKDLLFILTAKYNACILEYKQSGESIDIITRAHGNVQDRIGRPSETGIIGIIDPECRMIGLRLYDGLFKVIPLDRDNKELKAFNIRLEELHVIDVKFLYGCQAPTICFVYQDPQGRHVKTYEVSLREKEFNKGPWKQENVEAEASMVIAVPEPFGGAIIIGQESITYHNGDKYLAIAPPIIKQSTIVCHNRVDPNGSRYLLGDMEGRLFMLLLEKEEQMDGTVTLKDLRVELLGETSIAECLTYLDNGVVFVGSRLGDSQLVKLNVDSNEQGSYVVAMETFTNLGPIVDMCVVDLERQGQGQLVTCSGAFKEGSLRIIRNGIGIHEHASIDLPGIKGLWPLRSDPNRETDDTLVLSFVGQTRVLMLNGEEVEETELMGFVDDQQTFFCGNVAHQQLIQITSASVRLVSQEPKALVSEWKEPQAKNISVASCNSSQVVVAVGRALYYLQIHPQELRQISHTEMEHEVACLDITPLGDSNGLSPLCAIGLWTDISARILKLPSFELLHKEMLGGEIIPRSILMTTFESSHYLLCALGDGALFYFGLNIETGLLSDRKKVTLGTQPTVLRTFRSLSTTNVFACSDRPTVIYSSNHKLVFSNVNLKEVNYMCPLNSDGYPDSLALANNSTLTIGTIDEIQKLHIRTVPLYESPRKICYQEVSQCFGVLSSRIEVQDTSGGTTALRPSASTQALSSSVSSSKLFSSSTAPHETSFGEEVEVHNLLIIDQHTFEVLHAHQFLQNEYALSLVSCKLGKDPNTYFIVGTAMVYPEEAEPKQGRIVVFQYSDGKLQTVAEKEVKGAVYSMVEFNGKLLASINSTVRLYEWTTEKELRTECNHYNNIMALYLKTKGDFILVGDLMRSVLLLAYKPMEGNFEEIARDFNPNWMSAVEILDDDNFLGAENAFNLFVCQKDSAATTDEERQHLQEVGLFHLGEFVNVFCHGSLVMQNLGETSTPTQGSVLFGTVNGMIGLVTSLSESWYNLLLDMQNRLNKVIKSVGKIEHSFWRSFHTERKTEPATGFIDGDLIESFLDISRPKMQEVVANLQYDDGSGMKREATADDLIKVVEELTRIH
Method: (§1) Objective: The experiment was conducted to evaluate the degradation effects of test compounds on IKZF1 and IKZF3 proteins in MM.1S cells by detecting their impact on the expression levels of IKZF1 and IKZF3 proteins in MM.1S cells.
(§2) Cell line: MM.1S cell (obtained from ATCC; Cat. No. CRL-2974)
(§3) Negative control: 0.1% DMSO Table 4. Reagents and consumables
(§4) Experimental scheme: • 1) MM.1S cells in the logarithmic growth phase were seeded into a 96-well plate at 1.2 × 10^5 cells per well and cultured overnight. • 2) On the second day, drug treatment was initiated with a starting concentration of 300 nM, followed by a 3-fold dilution in triplicate wells, with 10 concentration gradients (containing DMSO), and incubated for 24 hours in a culture incubator. • 3) The mixture was centrifuged, and the cell supernatant was carefully removed. […]
(§5) GraphPad Prism 6 software was utilized to fit the curve with the inhibition rate data, and the DC50 value was calculated.

IKZF3 = target: T3, IKZF3 (Homo sapiens, UniProt Q96SW2+Q9UKT9); experiment: In cell western analysis of IKZF3 protein expression level in MM.1S cells; settings: IKZF3, MM.1S cells, 24 hours
T3 construct: expression levels of IKZF1 and IKZF3 proteins in MM.1S cells; host or cells: MM.1S cells
T3 sequence (Q9UKT9 whole entry): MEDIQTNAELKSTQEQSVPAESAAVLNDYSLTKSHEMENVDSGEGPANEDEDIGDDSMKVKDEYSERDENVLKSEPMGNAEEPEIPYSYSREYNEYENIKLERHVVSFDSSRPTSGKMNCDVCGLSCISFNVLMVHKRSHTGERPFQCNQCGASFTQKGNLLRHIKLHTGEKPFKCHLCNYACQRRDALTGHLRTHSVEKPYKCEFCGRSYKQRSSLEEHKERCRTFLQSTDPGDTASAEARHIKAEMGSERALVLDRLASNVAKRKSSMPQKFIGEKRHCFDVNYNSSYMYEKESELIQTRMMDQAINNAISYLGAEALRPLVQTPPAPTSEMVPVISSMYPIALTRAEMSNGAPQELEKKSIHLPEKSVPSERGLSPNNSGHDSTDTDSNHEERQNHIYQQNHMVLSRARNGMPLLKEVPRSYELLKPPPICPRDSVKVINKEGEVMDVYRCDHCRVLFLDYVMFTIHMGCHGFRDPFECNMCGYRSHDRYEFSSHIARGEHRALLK
T3 sequence (Q96SW2 whole entry): as the sequence (Q96SW2 whole entry) above
T3 sequence (Q16531 whole entry partner): as the sequence (Q16531 whole entry partner) above
Method: as §1, §2, §3, §4, §5

O=C1CCC(c2noc3ccc4c(NC(=O)CN5CCN(C[C@H]6CC[C@H](n7cc(NC(=O)c8coc(-c9ccnc(NCC%10CC%10)c9)n8)c(C(F)F)n7)CC6)CC5)cccc4c23)C(=O)N1 (stereo partly drawn) [Hydrochloride of Compound of Formula (I)]
DC50 (IRAK4): 4.87 nM | DC50 (IKZF1): 23.4 nM | DC50 (IKZF3): 20.6 nM
